Converted amounts (≈) assume the structure as drawn.
Columns and labels:
[1] = molecular target: T1, DdlB (Escherichia coli, UniProt P07862); test: Surface plasmon resonance binding to immobilised DdlB; settings: steady-state affinity model; 25°C; 50 mM Hepes, 150 mM NaCl, 5% DMSO; read-out: KD (SPR)
T1 construct: polyhistidine (His) tag (N); made in house; host or cells: E. coli BL21(λDE3), vector pQE-30 UA (Qiagen)
Procedure: The binding of the compounds 11, 13, 14, 24, 27, 33, and 35 to the target enzyme was confirmed using surface plasmon resonance (SPR) (Figure 10). Experiments were performed at conditions that enable long term stability of the enzyme. […] The enzyme was covalently attached to the surface of a sensor chip CM5 and compounds were titrated over the surface. The binding of all the compounds was characterised by fast association and dissociation rates. Equilibrium affinity constants, estimated from the steady-state binding levels are in agreement with enzymatic studies and ITC. In addition, the binding of other compounds was tested but insufficient solubility at higher concentrations of analytes in the running buffer precluded analysis.
Figure 10 SPR analysis of compounds binding to DdlB. Different concentrations of compounds were tested for the binding (left panels in all cases). The binding curves (right panels) were generated by ploting steady-state response levels, i.e. at the end of the association phase, vs concentration of the injected compound. For each compound 3–5 independent titrations were performed.
The binding constants were obtained by using a Biacore T100 (Biacore, GE Healthcare, USA). […] Two 1 min injections of 50 μg/ml DdlB diluted in 10 mM Na-acetate, pH 4.0 were applied on the second flow cell. The first flow cell was left unmodified and served as a control for non-specific binding of tested compounds. The remaining active groups on the surface of both flow cells were deactivated with a 7-min injection of ethanolamine. The level of immobilized enzyme was around 10000 response units.
Each analyte was titrated, with 3 or 4 repetitions, using different concentrations according to their solubility in running buffer (50 mM Hepes, 150 mM NaCl, 5% DMSO, pH 7.4), usually from 0,781 μM to 500 μM. One concentration was repeated at the end of the assay in each dilution series, in order to check the surface stability and repeatability. The association lasted 60 seconds at a flow-rate 30 μl/min. No regeneration was needed. All experiments were performed at 25°C. Sensorgrams were double referenced by subtracting the signal obtained in the empty flow cell and the injection of the buffer. The steady-state response levels were fitted using the Steady State Affinity model in Biacore T100 Evaluation software.

[2] = molecular target: T2, E. coli DdlB (Escherichia coli, UniProt P07862); test: Colorimetric malachite green inhibition assay of DdlB; assay type: biochemical; settings: for IC50: malachite green assay, 700 μM D-Ala, 500 μM ATP, 37°C, 20 min, read-out: inhibitory activity on DdlB: IC50
T2 construct: polyhistidine (His) tag (N); made in house; host or cells: E. coli BL21(λDE3), vector pQE-30 UA (Qiagen)
Procedure: All of the synthesized 6-arylpyrido[2,3-d]pyrimidines 11–36 were assayed for in vitro inhibitory activity on E. coli DdlB by detecting orthophosphate generated during the enzymatic reaction using a Malachite green assay.
Inhibition of DdlB was measured at different inhibitor and ATP concentrations in order to determine Ki values and the mode-of-action of both compounds.
The target compounds were tested for their ability to inhibit the D-Ala-adding activity of DdlB ligase with the colorimetric malachite green method in which orthophosphate generated during the reaction is measured. Each compound was tested in duplicate at 100, 250 or 500 μM in a mixture, final volume 50 μL, containing 50 mM Hepes (pH 8.0), 5 mM MgCl2, 10 mM (NH4)2SO4, 10 mM KCl, 700 μM D-Ala, 500 μM ATP, purified His-tagged DdlB (diluted in 50 mM Hepes (pH 7.2) and 1 mM DTT) and the test compound dissolved in DMSO. The final concentration of DMSO was 5% (v/v). The reaction mixture was incubated at 37°C for 20 min, then quenched with 100 μL of Biomol reagent and absorbance at 650 nm was measured after 5 min. To exclude possible promiscuous inhibitors, all compounds were tested in the presence of Triton-114 (0.005%). Residual activities were calculated relative to control assays without the compounds and with DMSO.

[3] = test system: ES100 (tolC deficient derivative of AB734); test: MIC by broth microdilution, ES100; assay type: cell-based, E. coli; settings: for MIC: Escherichia coli, read-out: MIC ES100 (tolC); for MIC ES100 +PMBN: with polymyxin B nonapeptide (4 μg/ml)
Procedure: (§1) Selected DdlB inhibitors were tested for their antibacterial activity against two E. coli strains E. coli 1411 and E. coli AB734 (Table 2). […] Additionally, growth inhibition of efflux pump-deficient strains SM1411 (acrAB deficient derivative of 1411) and ES100 (tolC deficient derivative of AB734) was measured, and MICs were repeated for each strain in the presence of polymyxin B nonapeptide (PMBN) to assess the impact of outer-membrane permeability on antimicrobial activity.
(§2) Minimum inhibitory concentrations (MICs) were determined by broth microdilution against E. coli 1411, SM1411 (acrAB deficient derivative of 1411), AB734 and ES100 (tolC deficient derivative of AB734) according to CLSI guidelines. MICs were repeated for each strain in the presence of polymyxin B nonapeptide (4 μg/ml) to assess the impact of outer-membrane permeability on antimicrobial activity.

[4] = test system: SM1411 (acrAB deficient derivative of 1411); test: MIC by broth microdilution, SM1411; assay type: cell-based, E. coli; settings: for MIC: Escherichia coli, read-out: MIC SM1411 (acrAB); for MIC SM1411 +PMBN: with polymyxin B nonapeptide (4 μg/ml)
Procedure: as §1, §2

[5] = test system: E. coli 1411; test: MIC by broth microdilution, E. coli 1411; assay type: cell-based; settings: for MIC: Escherichia coli, 1411, read-out: MIC 1411; for MIC 1411 +PMBN: with polymyxin B nonapeptide (4 μg/ml)
Procedure: as §1, §2

[6] = test system: E. coli AB734; test: MIC by broth microdilution, E. coli AB734; assay type: cell-based; settings: for MIC: Escherichia coli, AB734, read-out: MIC AB734; for MIC AB734 +PMBN: with polymyxin B nonapeptide (4 μg/ml)
Procedure: as §1, §2

[7] = test system: E. coli strains (1411, AB734, SM1411, ES100); test: Antibacterial activity stated for the E. coli strains together; assay type: cell-based; settings: for antibacterial activity (in words): efflux-deficient, permeabilised cells
Procedure: as §1, §2

Nc1ncc2cc(-c3ccccc3)c(N)nc2n1 [Compound 11, 6-phenylpyrido[2,3-d]pyrimidine-2,7-diamine]
Kd [1]: 150 ± 33.1 µM | melting point: > 300 °C | IC50 [2]: 1140 µM

COc1cc(OC)cc(-c2cc3cnc(N)nc3nc2N)c1 [Compound 13, 6-(3,5-dimethoxyphenyl)pyrido[2,3-d]pyrimidine-2,7-diamine]
IC50 [2]: 908 µM | MIC [3]: > 256 µg/mL | MIC ES100 +PMBN [3]: 64 µg/mL (≈ 215 µM) | MIC [4]: > 256 µg/mL | MIC SM1411 +PMBN [4]: 128 µg/mL (≈ 431 µM) | MIC [5]: > 256 µg/mL | MIC 1411 +PMBN [5]: >256 µg/mL | MIC [6]: > 256 µg/mL | MIC AB734 +PMBN [6]: >256 µg/mL

COc1cc(OC)cc(-c2cc3cnc(NCCCN4CCOCC4)nc3nc2N)c1 [Compound 15, 6-(3,5-dimethoxyphenyl)-N2-(3-morpholinopropyl)pyrido[2,3-d]pyrimidine-2,7-diamine]
melting point: 146 to 148 °C

COc1cc(OC)cc(-c2cc3cnc(NCCCN4CCOCC4)nc3nc2NC(=O)NC(C)(C)C)c1 [Compound 16, 1-tert-butyl-3-(6-(3,5-dimethoxyphenyl)-2-(3-morpholinopropylamino)pyrido[2,3-d]pyrimidin-7-yl)urea]
IC50 [2]: 133 µM | fold improved IC50 against DdlB compared to lead compound 33 ([2]; ratio of IC50 values, 16 against 33): 3.4 fold | MIC [3]: > 256 µg/mL | MIC ES100 +PMBN [3]: 128 µg/mL (≈ 244 µM) | MIC [4]: > 256 µg/mL | MIC SM1411 +PMBN [4]: 128 µg/mL (≈ 244 µM) | MIC [5]: > 256 µg/mL | MIC 1411 +PMBN [5]: >256 µg/mL | antibacterial activity (in words) [7]: weak antibacterial activity | MIC [6]: > 256 µg/mL | MIC AB734 +PMBN [6]: >256 µg/mL

COc1cc(OC)cc(-c2cc3cnc(NCCCN(C)C)nc3nc2N)c1 [Compound 17, 6-(3,5-dimethoxyphenyl)-N2-(3-(dimethylamino)propyl)pyrido[2,3-d]pyrimidine-2,7-diamine]
melting point: 92 to 95 °C

Nc1ncc2cc(-c3cc(C(F)(F)F)cc(C(F)(F)F)c3)c(N)nc2n1 [Compound 18, 6-(3,5-bis(trifluoromethyl)phenyl)pyrido[2,3-d]pyrimidine-2,7-diamine]
melting point: > 300 °C

CC(C)(C)NC(=O)Nc1nc2nc(N)ncc2cc1-c1cc(C(F)(F)F)cc(C(F)(F)F)c1 [Compound 19, 1-(2-amino-6-(3,5-bis(trifluoromethyl)phenyl)pyrido[2,3-d]pyrimidin-7-yl)-3-tert-butylurea]
IC50 [2]: 260 µM | MIC [3]: > 256 µg/mL | MIC ES100 +PMBN [3]: 64 µg/mL (≈ 135 µM) | MIC [4]: > 256 µg/mL | MIC SM1411 +PMBN [4]: >256 µg/mL | MIC [5]: > 256 µg/mL | MIC 1411 +PMBN [5]: >256 µg/mL | antibacterial activity (in words) [7]: weak antibacterial activity | MIC [6]: > 256 µg/mL | MIC AB734 +PMBN [6]: >256 µg/mL

Nc1ncc2cc(-c3cc(F)cc(F)c3)c(N)nc2n1 [Compound 20, 6-(3,5-difluorophenyl)pyrido[2,3-d]pyrimidine-2,7-diamine]
melting point: > 300 °C

Nc1ncc2cc(-c3cc(Cl)cc(Cl)c3)c(N)nc2n1 [Compound 22, 6-(3,5-dichlorophenyl)pyrido[2,3-d]pyrimidine-2,7-diamine]
melting point: > 300 °C | MIC ([7]; Escherichia coli, read-out: MICs against all strains): > 256 µg/mL
